The values below come from paper PMC4501319, “Discovery of Selective Small-Molecule Activators of a Bacterial Glycoside Hydrolase” (Angewandte Chemie (International Ed. in English), 2014).

Values joined by “and” are separate entries in the source; they are usually repeats but may differ in a detail not shown here. Equal entries are not always repeated.

For data set [1], the system named is β-N-Acetylglucosaminidase from Canavalia ensiformis (Jack bean). Put plainly: 4MU-GlcNAc substrate titration with commercially available β-N-acetylglucosaminidase. The format is biochemical. Conditions: 4MU-GlcNAc substrate titration at pH 4.9 and pH 6.5. The text has this: Figure S8: Effect of activators 2 and 4 on a β-N-Acetylglucosaminidase from Canavalia ensiformis (Jack
(B) titration at the same pH as used for the BtGH84 studies (pH 6.5).
Enzyme supplied by Sigma (purified from native source).
(1 picture or pasted object on this page, not shown here)

Data set [2] deals with T1, BtGH84 (Bacteroides thetaiotaomicron, UniProt Q89ZI2).
T1 construct: made in house
Put plainly: 4MU-GlcNAc cleavage assay (fluorescent kinetic enzyme activity assay). Format: biochemical. As to conditions: for Vmax(app): Michaelis–Menten fit, 1 % DMSO, substrate 50 μM to 2 mM, activator concentration 2 mM; for Kd: affinity of activator to the substrate-bound enzyme, read-out: αKA; for Vmax / α / β: non-essential activator equation fit to covariation experiments; for Vmax: activator 50 µM to 2 mM; for α: modifies KM; for β: modifies Vmax/kcat; for Emax: read-out: Maximum activation. The procedure:
AC50 measurements of fragment activators were performed using a fluorescent kinetic assay. Assays were carried out in a 96 well plate (Black Nunc F96 MicroWell Plates) at 25°C in a total volume of 100 μl per well, buffer (50 mM MES pH 6.5, 200 mM NaCl, 0.01% Tween-20, 1% DMSO) with 500 μM 4-methylumbelliferyl-β-D-GlcNAc (4MU-GlcNAc), as substrate and 50 nM BtGH84. Reactions were initiated by addition of 10 μl of substrate, to a final concentration of 500 μM, followed by 5 s of shaking. Fluorescent 4-methylumbelliferyl release was recorded continuously at 355 nm excitation and 460 nm emission for 20 s using a BMG PolarStar Optima plate reader. Rates were calculated using Sigmaplot as the slope of the curve of the collected data. Corrections were made to the detected gradients to adjust for the inner filter effect of 4MU-GlcNAc and convert the gradients into units of μmol min-1 according to a standard curve of 4MU. […]
Kinetic experiments using 4MU-GlcNAc were carried out in an analogous manner except that reactions were initiated by a 10 μl injection of BtGH84, to a final concentration of 50 nM, in a well containing the substrate at the desired concentration. Values quoted throughout are mean and standard deviation of three independent […]
Apparent KM and Vmax values were calculated from a Michalis-Menten curve fit to 8-10 point substrate titrations at a constant concentration of the activator. The covariation experiments used the same range of substrate concentrations across an activator concentration range of 50 µM to 2 mM. The data obtained from these experiments was fit to the nonessential activator equation: […]
Here, [S] is the concentration of the […], [A] the concentration of the activator, α modifies KM, β modifies Vmax and KA is the half-max concentration of the activator. […]

In data set [3] the target is T1, BtGH84. Put plainly: Affinity by NMR spectroscopy using proton relaxation rates R2. The format is binding. How it is done: (§1) Compounds in the fragment library were purchased from Specs, additional structural neighbours were purchased from Specs and Enamine. O-(2-Acetamido-2-deoxy-D-glucopyranosylidene) amino-Z-N-phenylcarbamate (PUGNAc) was purchased from Tocris Bioscience.
(§2) The fragment library was assembled as described by Schulz et al.[1] and dissolved in DMSO-d6 to a concentration of 200 mM and quality controlled using 1H NMR spectroscopy. Instant JChem 5.3.8, 2010, ChemAxon (http://www.chemaxon.com), was used for structure database management.
(§3) NMR spectroscopy and fragment screening
(§4) NMR experiments were carried out on a Bruker Avance II 700 MHz NMR spectrometer equipped with a triple resonance probe and z axis gradients. Data were processed using Topspin 3.2 software. Three NMR experiments were used for the screening, STD NMR,[2] PO-WaterLOGSY,[3] and T1ρ-filtered[4] 1H NMR experiments. […] The experiments were recorded using the standard STD NMR pulse sequence with a 15 ms 6 kHz spin-lock pulse to reduce the background protein resonances and excitation sculpting to suppress the water resonance. […]
Figure S3. Dissociation constant of 2 for BtGH84 determined in the presence of PUGNAc with 1H R2 relaxation rates. […]

Another data set can be described thus: Aqueous solubility. The format is physicochemical.
In data set [4] the target is T1, BtGH84. Nature of the data set: STD NMR competition between activators. Format: binding. As to conditions: in the presence of 2 (25 mM) as competitor. The procedure:
as §1, §2, §3
as §4, with “experiments. All NMR screening data were collected at 288K and the samples contained 20 μM BtGH84, fragments at a concentration of approximately 200 μM per compound and 20 μM of TSP in 25 mM phosphate buffer containing 150 mM NaCl and 10% D2O at pH 7.4.” for “experiments.”

[5] abbreviates: titration of activator from 50 μM to 2 mM, substrate concentration 500 μM.

T1 sequence (Q89ZI2 22-737, change not shown): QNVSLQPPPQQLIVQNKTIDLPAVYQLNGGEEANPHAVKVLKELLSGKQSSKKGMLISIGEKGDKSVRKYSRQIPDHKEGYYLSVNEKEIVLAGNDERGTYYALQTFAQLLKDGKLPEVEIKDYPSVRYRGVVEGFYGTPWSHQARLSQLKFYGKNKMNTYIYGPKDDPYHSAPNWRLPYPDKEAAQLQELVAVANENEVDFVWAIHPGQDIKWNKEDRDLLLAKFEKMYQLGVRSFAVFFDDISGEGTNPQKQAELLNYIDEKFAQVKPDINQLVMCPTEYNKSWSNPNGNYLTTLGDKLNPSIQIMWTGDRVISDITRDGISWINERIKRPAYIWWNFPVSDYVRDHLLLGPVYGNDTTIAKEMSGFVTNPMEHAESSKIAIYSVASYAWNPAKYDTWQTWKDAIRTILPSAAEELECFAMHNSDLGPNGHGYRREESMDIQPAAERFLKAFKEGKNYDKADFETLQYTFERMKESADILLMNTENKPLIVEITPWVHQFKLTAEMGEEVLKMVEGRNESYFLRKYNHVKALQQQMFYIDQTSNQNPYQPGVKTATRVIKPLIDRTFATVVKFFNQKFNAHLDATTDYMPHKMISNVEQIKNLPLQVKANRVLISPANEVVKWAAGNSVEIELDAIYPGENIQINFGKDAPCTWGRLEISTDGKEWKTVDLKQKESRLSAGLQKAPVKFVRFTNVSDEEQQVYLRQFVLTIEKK

Broadly, the AC50 is the midpoint of the concentration-response curve, whichever way the signal moves. Read a low AC50 as activity at low concentration. For `CCOc1ncnc2ccccc12` [Compound 2, 4-ethoxyquinazoline], in data set [1], the “activation of β-N-acetylglucosaminidase” value is “do not increase the activity”. Besides, the AC50 at BtGH84 [2] (activation, 4MU-GlcNAc substrate concentration 500 μM) was 3500 µM and ~3500 µM. For the same molecule, the “affinity for BtGH84” value at BtGH84 [3] (in the absence of PUGNAc, compared with presence of PUGNAc) is “weaker”. Further, the Kd on BtGH84 [3] (in the presence of PUGNAc (200 μM), 8 μM BtGH84, 298 K) stood at 3100 ± 700 µM.

Usually Vmax stands for the rate approached at saturating substrate. Take `CCOc1ncnc2sc(C)c(C)c12` [Compound 3]: at BtGH84 [2], the “Vmax(app)” value was 0.022 ± 0.001 µmol/min, the Vmax came out at 0.019 ± 0.0007 µmol/min, the α was 0.061 ± 0.04 and the β was found to be 1.4 ± 0.1. On BtGH84 [2] (covariation experiments), the Kd turned out to be 1090 µM and the βkcat amounted to 88.7 s⁻¹. Besides, on BtGH84 [2] (setting [5]), the AC50 was determined as 575 ± 78 µM and the Emax is 284%. In addition, the aqueous solubility result in the data set “Aqueous solubility” (compared to the original activator 2) was “poor”. Besides, the “highest concentration attainable at 1% DMSO” value in “Aqueous solubility” (enzyme assay buffer, 1% DMSO) was 2 mM.

With `Cc1sc2ncnc(N3CCOCC3)c2c1C` [Compound 4], the “activation of β-N-acetylglucosaminidase” value in data set [1] is on record as “do not increase the activity”. In addition, on BtGH84 [2], the “Vmax(app)” value worked out at 0.026 ± 0.002 µmol/min; the Vmax turned out to be 0.018 ± 0.002 µmol/min; the α is 0.14 and 0.14 ± 0.02; the β was 1.7 and 1.7 ± 0.1. At BtGH84 [2] (covariation experiments), the Kd is ~200 µM and 224 µM; the βkcat is 100 s⁻¹. Also, at BtGH84 [2] (from α, covariation experiments), the “enhancement of substrate binding in the presence of the activator” value was about 7 fold. The “increase of kcat in the presence of the activator” value at BtGH84 [2] (from β, covariation experiments) came out at 1.7 fold. Moreover, at BtGH84 [2] (setting [5]), the AC50 is 259 ± 24 µM and the Emax was found to be 371%. Also, on BtGH84 [4], the “saturation transfer (STD NMR signal) from BtGH84 to activator” value was “significantly diminished”.

As to `CCc1cc2c(N3CCOCC3)ncnc2s1` [Compound 5], on BtGH84 [2], the “Vmax(app)” value amounted to 0.024 ± 0.001 µmol/min, the Vmax turned out to be 0.018 ± 0.0008 µmol/min, the α amounted to 0.17 ± 0.02 and the β turned out to be 1.3 ± 0.07. Besides, at BtGH84 [2] (covariation experiments), the Kd was ~200 µM and 205 µM; the βkcat stood at 75.8 s⁻¹. Besides, on BtGH84 [2] (setting [5]), the activity was half-maximal at 274 ± 12 µM (AC50) and the Emax was determined as 329%. Further, the “saturation transfer (STD NMR signal) from BtGH84 to activator” value on BtGH84 [4] is reported as “clear loss in signal intensity”.

As for `c1nc(N2CCOCC2)c2ccsc2n1` [Compound 6], the “Vmax(app)” value at BtGH84 [2] stood at 0.015 ± 0.002 µmol/min. In addition, at BtGH84 [2] (setting [5]), the activity was half-maximal at 702 ± 85 µM (AC50) and the Emax came out at 234%.
